# Experimental data: patent US20110112463A1, “COMPOSITIONS AND METHODS FOR TREATING A NEURONAL INJURY OR NEURONAL DISORDERS” (priority 2009, published 2011)
# “Also recorded” adds a separate entry of the source.
# Tested on: NMDA receptors
# Assay: NMDA receptor blockade with MK-801 before intermittent photostimulation of ChR2 animals, diaphragmatic EMG
# Type: in vivo, Sprague Dawley rats
# Text: Four days after C2 hemisection and/or virus injection, the animals were anesthetized as above and prepared for light treatment and physiological recordings. In a room where all light was eliminated except for that needed to accomplish the surgical procedures, approximately an eight cm incision was made at the base of the ribcage to expose the abdominal surface of the diaphragm. Bipolar electrodes, connected to an amplifier and data acquisition set-up (CED 1401/Spike2 Data Analysis Computer Interface, Cambridge Electronic Design), were inserted into both left and right hemidiaphragms to record diaphragmatic activity. After this, the cervical area of the spinal cord was reopened again for exposure to photostimulation at a wavelength of 475 nm, i.e., blue light. The light source was a portable unit capable of producing light at various wavelengths through a fiber optic cable (Model Lambda DG-4, Sutter Instrument). Diaphragmatic motor activity was recorded before, during, and after stimulation. During recording, the animals were placed on a circulating warm water blanket to maintain body temperature. The initial protocol used for photostimulation included sustained exposure (1 min) of the C3-C6 spinal cord from the light source, as well as, intermittent exposure to light at about once per second for 1 min. […] This protocol was adapted from the long-term facilitation induction protocol of 5 min normoxia followed by 5 min hypoxia (Fuller et al., 2003; Golder and Mitchell, 2005). The intermittent stimulation consisted of light exposure at 0.5 Hz, with each flash of light 1 s long.
# To block NMDA receptors, 500 μl of 10 μM MK-801 (Sigma), a noncompetitive NMDA receptor antagonist, diluted in PBS, was applied to the exposed spinal cord. MK-801 was administered after 5 min of baseline recording. Recording with MK-801 continued for 5 more minutes before intermittent photostimulation and thereafter as described above.
# After recording, the raw diaphragmatic EMG signal was rectified and integrated using Spike2 software. Frequency was determined by counting total breaths for 5 min before and after photostimulation. Peak amplitude and burst duration of inspiratory bursts were measured through Spike2, for at least 25 breaths before and after stimulation. Poststimulation analyses of ChR2 animals were made during regular patterned respiratory related diaphragmatic EMG activity. All values were standardized to prestimulation measures. Statistical analysis was performed using ANOVA and Tukey's post hoc analysis. All values with a p value <0.05 were considered significant. All error bars indicate SEs.
smiles,measurement,setting,value
C[C@]12N[C@H](Cc3ccccc31)c1ccccc12 [MK-801],effect on light-induced change in diaphragmatic EMG activity,"500 μl of 10 μM MK-801 in PBS on exposed C3-C6 spinal cord, ipsilateral and contralateral",failed to elicit any kind of change in diaphragmatic EMG activity; also recorded: eliminated cycling of increasing diaphragmatic EMG activity
same,animals in which intermittent photostimulation failed to elicit any change in EMG activity,500 μl of 10 μM MK-801 on exposed C3-C6 spinal cord,four of six
same,frequency of breaths before and after stimulation,FIG. 4A,no change
same,effect on photostimulation-induced increase of peak EMG amplitude during inspiratory bursts,"FIG. 4B, brought back to control levels",abolished
same,effect on photostimulation-induced increase in duration of EMG inspiratory bursts,"FIG. 4C, brought back to control levels",attenuated
